Experimental data as given in patent US20070243262A1, “Stable S-nitrosothiol formulations” (priority 2005, published 2007).

Experiments:
[1] = GSNO API (powder) stability by HPLC; format: physicochemical; settings: for GSNO % w/w at 5° C. / GSNO % w/w at −20° C. / GSNO % w/w at −80° C.: GSNO powder, HPLC
Procedure: GSNO powder was tested for stability at various temperatures over a three-month period of time, and each formulation was tested for stability at various temperatures over a six month period of time. Stability was determined by HPLC analysis at various times throughout the test period.

[2] = cited from earlier work

GSNO % w/w at 5° C. ([1]; 0 elapsed days): 92.7 % w/w | GSNO % w/w at 5° C. ([1]; 14 elapsed days): 84.6 % w/w | GSNO % w/w at 5° C. ([1]; 30 elapsed days): 89.2 % w/w | GSNO % w/w at 5° C. ([1]; 90 elapsed days): 80.0 % w/w | GSNO % w/w at −20° C. ([1]; 0 elapsed days): 92.7 % w/w | GSNO % w/w at −20° C. ([1]; 14 elapsed days): 90.6 % w/w | GSNO % w/w at −20° C. ([1]; 30 elapsed days): 91.1 % w/w | GSNO % w/w at −20° C. ([1]; 90 elapsed days): 89.7 % w/w | GSNO % w/w at −80° C. ([1]; 0 elapsed days): 92.7 % w/w | GSNO % w/w at −80° C. ([1]; 30 elapsed days): 91.4 % w/w | GSNO % w/w at −80° C. ([1]; 90 elapsed days): 91.9 % w/w | stability of GSNO powder (in words) ([1]; temperatures above 0° C.): rapidly degrades
SMILES: N[C@@H](CCC(=O)N[C@@H](CSN=O)C(=O)NCC(=O)O)C(=O)O [GSNO, S-nitrosoglutathione]
stability in aqueous solutions [2]: decomposing in hours
